Earlier results, collected in patent publication US20080044452A1, “DRUG DELIVERY SYSTEM FOR TREATMENT OF TRANSITIONAL CELL CARCINOMA” (priority 2006, published 2008).

## CO[C@@]12[C@H](COC(N)=O)C3=C(C(=O)C(C)=C(N)C3=O)N1C[C@@H]1N[C@@H]12 [Mitomycin C]
  stability in acidic urine: not stable in acidic urine
